In ChEMBL document CHEMBL1201862, “PubChem BioAssay data set” (2004):
The source made the active and inactive calls.

What was measured:
[1] = Vero cell cytotoxicity, dose response, cytotoxicity control for M. tuberculosis growth inhibitor project, Vero cells, purified and synthesized compounds, set 5 (AID 504909); type: functional; settings: Mycobacterium tuberculosis
[2] = THP-1 cell cytotoxicity, cytotoxicity control, set 4 (AID 504911); type: functional; settings: Mycobacterium tuberculosis
[3] = Vero cell cytotoxicity, dose response, cytotoxicity control for M. tuberculosis growth inhibitor project, Vero cells, purified and synthesized compounds, set 4 (AID 504854); type: functional; settings: Mycobacterium tuberculosis
[4] = target: T1, Benomyl/methotrexate resistance protein (Candida albicans, UniProt P28873); assay: CaMdr1 efflux pump inhibitor potency, dose response, singleplex, Cherry Pick1 hits (AID 588608); type: functional
[5] = target: T2, Multidrug resistance protein CDR1 (Candida albicans, UniProt P43071); assay: CaCDR1 efflux pump inhibitors in yeast, dose response, S. cerevisiae AD1-8u, singleplex, Cherry Pick1 hits (AID 588606); type: functional
[6] = target: T2, Multidrug resistance protein CDR1; assay: CaCdr1 efflux pump inhibitor potency, dose response, singleplex, Cherry Pick2 set (AID 623996); type: functional; settings: read-out: EC50_MICROM
[7] = target: T1, Benomyl/methotrexate resistance protein; assay: CaMdr1 efflux pump inhibitor potency, dose response, singleplex, Cherry Pick2 set (AID 623992); type: functional; settings: read-out: EC50_MICROM
[8] = target: DNA dC->dU-editing enzyme APOBEC-3A (Homo sapiens, UniProt P31941); assay: SAR analysis of small molecule inhibitors of APOBEC3A DNA Deaminase via a fluorescence-based single-stranded DNA deaminase assay - Set 2.; type: functional; settings: read-out: IC50_Mean
[9] = target: DNA dC->dU-editing enzyme APOBEC-3G (Homo sapiens, UniProt Q9HC16); assay: SAR analysis of small molecule inhibitors of APOBEC3G DNA Deaminase via a fluorescence-based single-stranded DNA deaminase assay - Set 2.; type: functional; settings: read-out: IC50_Mean
[10] = target: Glycogen synthase kinase-3 beta (Homo sapiens, UniProt P49841); assay: GSK3beta kinase inhibitors, dose response, biochemical, microfluidics, dry powder samples, set 2 (AID 623989); type: functional
[11] = target: T3, Glycogen synthase kinase-3 alpha (Homo sapiens, UniProt P49840); assay: human GSK3 alpha kinase inhibition, dose response, selectivity assay for GSK3beta inhibitor project, biochemical, microfluidics, dry powder samples, set 2 (AID 623978); type: functional
[12] = target: Cyclin-dependent kinase 5/CDK5 activator 1 (Homo sapiens, UniProt Q00535); assay: CDK5-p25 kinase inhibition, dose response, selectivity assay for GSK3beta inhibitor project, biochemical, microfluidic mobility shift, dry powder, set 2 (AID 623979); type: functional
[13] = target: T4, DNA repair protein RAD52 homolog (Homo sapiens, UniProt P43351); type: functional, biochemical
T4 sequence (P43351 whole entry): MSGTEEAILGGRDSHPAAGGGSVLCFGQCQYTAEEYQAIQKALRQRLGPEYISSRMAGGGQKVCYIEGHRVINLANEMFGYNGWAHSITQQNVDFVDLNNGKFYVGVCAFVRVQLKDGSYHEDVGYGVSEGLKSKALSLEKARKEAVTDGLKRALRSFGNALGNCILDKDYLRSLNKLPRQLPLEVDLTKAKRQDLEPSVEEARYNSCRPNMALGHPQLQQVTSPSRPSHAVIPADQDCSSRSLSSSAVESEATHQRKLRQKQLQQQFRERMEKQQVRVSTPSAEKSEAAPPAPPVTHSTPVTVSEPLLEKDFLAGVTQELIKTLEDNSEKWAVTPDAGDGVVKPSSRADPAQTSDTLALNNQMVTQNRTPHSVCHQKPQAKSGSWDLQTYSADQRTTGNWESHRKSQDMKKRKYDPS

[14] = target: Melanin-concentrating hormone receptor 1 (Homo sapiens, UniProt Q99705); assay: Late-stage fluorescence-based counterscreen for antagonists of the G-protein coupled receptor 7 (GPR7): cell-based dose response assay to identify antagonists of the melanin-concentrating hormone receptor 1 (MCHR1) Set 6.; type: functional
[15] = target: Neuropeptides B/W receptor type 1 (Homo sapiens, UniProt P48145); assay: GPR7 antagonist potency, late-stage follow-up, cell-based, fluorescence, dose response, set 6 (AID 588583); type: functional
[16] = target: Protein kinase C theta type (Homo sapiens, UniProt Q04759); assay: Navigating the Kinome. Panel member name: PRKCQ; type: functional
[17] = target: Ribosomal protein S6 kinase alpha-3 (Homo sapiens, UniProt P51812); type: functional;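 also: measured within a kinome-wide profiling panel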
[18] = target: Dual specificity mitogen-activated protein kinase kinase 1 (Homo sapiens, UniProt Q02750); assay: Navigating the Kinome. Panel member name: MAP2K1; type: functional
[19] = target: Tyrosine-protein kinase JAK2 (Homo sapiens, UniProt O60674); type: functional;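 also: JAK2 tested as one member of a kinase panel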
[20] = target: 5'-AMP-activated protein kinase catalytic subunit alpha-1 (Homo sapiens, UniProt Q13131); type: functional
[21] = target: ALK tyrosine kinase receptor (Homo sapiens, UniProt Q9UM73); type: functional;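 also: ALK tested as one member of a kinase panel screen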
[22] = target: Proto-oncogene tyrosine-protein kinase receptor Ret (Homo sapiens, UniProt P07949); type: functional;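 also: measured within a kinome-wide profiling panel, RET as the panel member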
[23] = target: Tyrosine-protein kinase receptor TYRO3 (Homo sapiens, UniProt Q06418); type: functional;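 also: TYRO3 value obtained as one member of a kinome-wide profiling panel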
[24] = target: Tyrosine-protein kinase Lck (Homo sapiens, UniProt P06239); type: functional;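 also: lck was assayed as one member of a kinase panel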
[25] = target: Death-associated protein kinase 3 (Homo sapiens, UniProt O43293); type: functional;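 also: measured as one member of a kinome-wide profiling panel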
Activin receptor type-1 = Activin receptor type-1 (Homo sapiens, UniProt Q04771); assay: Navigating the Kinome. Panel member name: ACVR1; type: functional
[26] = target: Mitogen-activated protein kinase 8 (Homo sapiens, UniProt P45983); type: functional;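 also: value comes from one member of a kinome-wide kinase profiling panel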
[27] = target: Serine/threonine-protein kinase pim-1 (Homo sapiens, UniProt P11309); type: functional
Aurora kinase A = Aurora kinase A (Homo sapiens, UniProt O14965); type: functional;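 also: value from the Navigating the Kinome kinase panel profiling, panel entry STK6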
[28] = target: Serine/threonine-protein kinase PAK 4 (Homo sapiens, UniProt O96013); type: functional;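 also: value obtained within a kinome profiling panel in which PAK4 was one of the panel members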
[29] = target: Casein kinase I isoform alpha (Homo sapiens, UniProt P48729); type: functional
[30] = target: Tyrosine-protein kinase JAK3 (Homo sapiens, UniProt P52333); type: functional
LIM domain kinase 1 = LIM domain kinase 1 (Homo sapiens, UniProt P53667); assay: Navigating the Kinome. Panel member name: LIMK1; type: functional
[31] = target: Serine/threonine-protein kinase TAO1 (Homo sapiens, UniProt Q7L7X3); type: functional
[32] = target: T3, Glycogen synthase kinase-3 alpha; type: functional
[33] = target: Mitogen-activated protein kinase kinase kinase kinase 2 (Homo sapiens, UniProt Q12851); type: functional;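 also: measured as one member of a kinome-wide kinase panel, with MAP4K2 as the panel entry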
[34] = target: Hepatocyte growth factor receptor (Homo sapiens, UniProt P08581); type: functional;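 also: kinase panel profiling across the kinome, with MET as the panel member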
Activated CDC42 kinase 1 = Activated CDC42 kinase 1 (Homo sapiens, UniProt Q07912); assay: Navigating the Kinome. Panel member name: ACK1; type: functional
[35] = target: Platelet-derived growth factor receptor beta (Homo sapiens, UniProt P09619); type: functional;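 also: value comes from a kinome panel, with PDGFRB tested as one panel member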
[36] = target: Receptor-type tyrosine-protein kinase FLT3 (Homo sapiens, UniProt P36888); type: functional;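 also: FLT3 was tested as one member of a kinome-wide kinase panel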
[37] = target: Serine/threonine-protein kinase Chk1 (Homo sapiens, UniProt O14757); type: functional;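 also: measured as one member of a kinome-wide kinase profiling panel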
[38] = target: Vascular endothelial growth factor receptor 2 (Homo sapiens, UniProt P35968); type: functional
[39] = target: G protein-coupled receptor kinase 5 (Homo sapiens, UniProt P34947); assay: Navigating the Kinome. Panel member name: GPRK5; type: functional
[40] = target: Cyclin-dependent kinase 5 (Homo sapiens, UniProt Q00535); type: functional;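 also: CDK5 measured as one member of a kinase profiling panel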
[41] = target: Insulin-like growth factor 1 receptor (Homo sapiens, UniProt P08069); assay: Navigating the Kinome. Panel member name: IGF1R; type: functional
[42] = target: Dual specificity tyrosine-phosphorylation-regulated kinase 1B (Homo sapiens, UniProt Q9Y463); assay: Navigating the Kinome. Panel member name: DYRK1B; type: functional
[43] = target: cAMP-dependent protein kinase catalytic subunit PRKX (Homo sapiens, UniProt P51817); type: functional
Focal adhesion kinase 1 = Focal adhesion kinase 1 (Homo sapiens, UniProt Q05397); type: functional;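 also: measured as one member of a kinome panel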
[44] = target: Leucine-rich repeat serine/threonine-protein kinase 2 (Homo sapiens, UniProt Q5S007); type: functional;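 also: value from a broad kinome-wide panel profiling study in which LRRK2 was one of the kinases tested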
Aurora kinase B = Aurora kinase B (Homo sapiens, UniProt Q96GD4); type: functional
[45] = target: Rho-associated protein kinase 1 (Homo sapiens, UniProt Q13464); type: functional;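 also: measured within a broad kinome-wide panel profiling many kinases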
[46] = target: Tyrosine-protein kinase Fyn (Homo sapiens, UniProt P06241); type: functional
[47] = target: Serine/threonine-protein kinase Nek2 (Homo sapiens, UniProt P51955); type: functional
[48] = target: Cyclin-dependent kinase 8 (Homo sapiens, UniProt P49336); assay: Navigating the Kinome. Panel member name: CDK8; type: functional
[49] = target: Cyclin-dependent kinase 7 (Homo sapiens, UniProt P50613); type: functional;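 also: value comes from a kinome-wide kinase profiling panel in which CDK7 is one member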
[50] = target: Cyclin-dependent kinase 9 (Homo sapiens, UniProt P50750); type: functional;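 also: value from the CDK9 entry of a kinome-spanning kinase panel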
[51] = target: BDNF/NT-3 growth factors receptor (Homo sapiens, UniProt Q16620); type: functional;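 also: NTRK2 measured as one member of a broad kinome-wide kinase profiling panel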
[52] = target: Dual specificity protein kinase CLK4 (Homo sapiens, UniProt Q9HAZ1); type: functional
[53] = target: Macrophage colony-stimulating factor 1 receptor (Homo sapiens, UniProt P07333); type: functional;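 also: value comes from the Navigating the Kinome screening panel, CSF1R member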
[54] = target: Dual specificity mitogen-activated protein kinase kinase 2 (Homo sapiens, UniProt P36507); assay: Navigating the Kinome. Panel member name: MAP2K2; type: functional
[55] = target: Dual specificity tyrosine-phosphorylation-regulated kinase 1A (Homo sapiens, UniProt Q13627); type: functional;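 also: measured against DYRK1A as one member of a broad kinome profiling panel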
[56] = target: Inhibitor of nuclear factor kappa-B kinase subunit epsilon (Homo sapiens, UniProt Q14164); assay: Navigating the Kinome. Panel member name: IKBKE; type: functional
[57] = target: Leukocyte tyrosine kinase receptor (Homo sapiens, UniProt P29376); assay: Navigating the Kinome. Panel member name: LTK; type: functional
[58] = target: T5, Ubiquitin-conjugating enzyme E2 N (Homo sapiens, UniProt P61088); type: functional;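 also: Dose-response confirmation in a TR-FRET assay detecting UBC13-driven polyubiquitin chain formation, inhibition measured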
T5 sequence (P61088 whole entry): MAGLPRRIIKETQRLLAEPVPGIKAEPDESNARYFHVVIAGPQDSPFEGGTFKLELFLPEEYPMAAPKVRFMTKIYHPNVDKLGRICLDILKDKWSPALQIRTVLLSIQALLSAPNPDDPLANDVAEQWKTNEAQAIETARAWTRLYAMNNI

[59] = target: T6, Multidrug resistance protein CDR2 (Candida albicans (strain SC5314 / ATCC MYA-2876) (Yeast), UniProt P78595); assay: CaCDR2 efflux pump inhibitors in yeast, dose response, S. cerevisiae AD1-8u, singleplex, Cherry Pick1 hits (AID 588604); type: functional
[60] = target: T6, Multidrug resistance protein CDR2; assay: CaCDR2 efflux pump inhibitors in yeast, dose response, S. cerevisiae AD1-8u, singleplex, Cherry Pick2 set (AID 623994); type: functional; settings: read-out: EC50_MICROM

T1 sequence (P28873 whole entry): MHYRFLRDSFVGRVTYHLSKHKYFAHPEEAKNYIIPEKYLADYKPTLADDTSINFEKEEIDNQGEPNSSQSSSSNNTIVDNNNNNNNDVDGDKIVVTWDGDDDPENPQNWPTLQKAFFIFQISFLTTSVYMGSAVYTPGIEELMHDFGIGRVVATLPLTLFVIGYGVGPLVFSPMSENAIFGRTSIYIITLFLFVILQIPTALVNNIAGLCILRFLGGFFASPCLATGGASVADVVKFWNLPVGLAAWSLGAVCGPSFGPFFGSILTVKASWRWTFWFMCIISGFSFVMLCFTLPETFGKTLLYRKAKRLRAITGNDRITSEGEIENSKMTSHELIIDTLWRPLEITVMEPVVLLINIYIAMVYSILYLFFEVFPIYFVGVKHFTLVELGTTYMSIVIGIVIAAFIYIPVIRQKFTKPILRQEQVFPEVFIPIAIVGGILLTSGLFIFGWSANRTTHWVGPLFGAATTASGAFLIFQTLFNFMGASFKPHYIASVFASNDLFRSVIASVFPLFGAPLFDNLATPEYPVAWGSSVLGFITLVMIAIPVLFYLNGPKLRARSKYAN
T3 sequence (P49840 whole entry): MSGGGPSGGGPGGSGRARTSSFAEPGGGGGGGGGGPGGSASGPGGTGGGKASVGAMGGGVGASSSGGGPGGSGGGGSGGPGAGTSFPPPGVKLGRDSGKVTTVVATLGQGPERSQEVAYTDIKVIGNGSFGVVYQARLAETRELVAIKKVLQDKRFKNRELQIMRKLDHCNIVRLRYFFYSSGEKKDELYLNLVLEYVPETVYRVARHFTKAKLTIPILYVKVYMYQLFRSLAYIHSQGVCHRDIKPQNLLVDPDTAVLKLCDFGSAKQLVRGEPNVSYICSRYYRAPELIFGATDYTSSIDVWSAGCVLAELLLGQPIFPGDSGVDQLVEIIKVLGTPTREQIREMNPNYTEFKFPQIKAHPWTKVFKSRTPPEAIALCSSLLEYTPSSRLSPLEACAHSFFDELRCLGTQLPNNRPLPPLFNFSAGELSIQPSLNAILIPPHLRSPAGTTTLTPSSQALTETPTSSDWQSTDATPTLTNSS
T6 sequence (P78595 whole entry): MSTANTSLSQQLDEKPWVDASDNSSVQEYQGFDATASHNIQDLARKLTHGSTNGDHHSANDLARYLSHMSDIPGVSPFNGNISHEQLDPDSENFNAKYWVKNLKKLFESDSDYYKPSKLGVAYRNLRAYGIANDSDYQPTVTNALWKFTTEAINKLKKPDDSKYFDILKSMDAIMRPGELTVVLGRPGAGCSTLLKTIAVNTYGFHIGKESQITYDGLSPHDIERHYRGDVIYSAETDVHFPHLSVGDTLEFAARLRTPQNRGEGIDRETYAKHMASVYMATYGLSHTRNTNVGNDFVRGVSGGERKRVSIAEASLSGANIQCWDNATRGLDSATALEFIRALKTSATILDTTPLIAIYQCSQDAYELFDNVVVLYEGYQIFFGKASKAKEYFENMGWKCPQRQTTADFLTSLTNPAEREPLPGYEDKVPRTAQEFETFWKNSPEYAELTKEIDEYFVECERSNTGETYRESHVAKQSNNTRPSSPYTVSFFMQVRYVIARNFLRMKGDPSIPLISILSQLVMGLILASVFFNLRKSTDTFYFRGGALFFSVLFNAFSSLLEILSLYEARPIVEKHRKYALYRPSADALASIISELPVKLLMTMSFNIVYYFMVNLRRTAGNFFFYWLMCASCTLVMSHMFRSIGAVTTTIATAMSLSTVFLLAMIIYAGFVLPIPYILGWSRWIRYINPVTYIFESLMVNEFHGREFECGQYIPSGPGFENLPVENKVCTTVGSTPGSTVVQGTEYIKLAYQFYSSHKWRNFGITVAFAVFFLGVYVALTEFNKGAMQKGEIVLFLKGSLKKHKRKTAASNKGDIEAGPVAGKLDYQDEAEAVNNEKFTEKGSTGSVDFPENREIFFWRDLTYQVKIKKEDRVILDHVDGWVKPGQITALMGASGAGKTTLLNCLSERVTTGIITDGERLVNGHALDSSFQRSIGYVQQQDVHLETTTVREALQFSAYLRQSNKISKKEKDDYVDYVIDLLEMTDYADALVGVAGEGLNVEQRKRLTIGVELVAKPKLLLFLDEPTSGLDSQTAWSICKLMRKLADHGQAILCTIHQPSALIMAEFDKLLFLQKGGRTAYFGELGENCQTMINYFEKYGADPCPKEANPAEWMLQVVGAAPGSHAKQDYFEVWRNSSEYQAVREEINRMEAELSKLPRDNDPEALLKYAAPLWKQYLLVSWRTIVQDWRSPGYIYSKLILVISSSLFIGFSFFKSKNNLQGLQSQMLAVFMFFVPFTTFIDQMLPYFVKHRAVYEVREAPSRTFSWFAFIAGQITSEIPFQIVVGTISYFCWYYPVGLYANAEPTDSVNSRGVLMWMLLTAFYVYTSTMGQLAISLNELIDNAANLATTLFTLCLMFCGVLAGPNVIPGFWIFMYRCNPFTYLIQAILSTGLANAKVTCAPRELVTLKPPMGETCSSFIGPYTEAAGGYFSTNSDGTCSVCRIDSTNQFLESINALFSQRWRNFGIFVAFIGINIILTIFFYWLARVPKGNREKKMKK
T2 sequence (P43071 whole entry, looked up): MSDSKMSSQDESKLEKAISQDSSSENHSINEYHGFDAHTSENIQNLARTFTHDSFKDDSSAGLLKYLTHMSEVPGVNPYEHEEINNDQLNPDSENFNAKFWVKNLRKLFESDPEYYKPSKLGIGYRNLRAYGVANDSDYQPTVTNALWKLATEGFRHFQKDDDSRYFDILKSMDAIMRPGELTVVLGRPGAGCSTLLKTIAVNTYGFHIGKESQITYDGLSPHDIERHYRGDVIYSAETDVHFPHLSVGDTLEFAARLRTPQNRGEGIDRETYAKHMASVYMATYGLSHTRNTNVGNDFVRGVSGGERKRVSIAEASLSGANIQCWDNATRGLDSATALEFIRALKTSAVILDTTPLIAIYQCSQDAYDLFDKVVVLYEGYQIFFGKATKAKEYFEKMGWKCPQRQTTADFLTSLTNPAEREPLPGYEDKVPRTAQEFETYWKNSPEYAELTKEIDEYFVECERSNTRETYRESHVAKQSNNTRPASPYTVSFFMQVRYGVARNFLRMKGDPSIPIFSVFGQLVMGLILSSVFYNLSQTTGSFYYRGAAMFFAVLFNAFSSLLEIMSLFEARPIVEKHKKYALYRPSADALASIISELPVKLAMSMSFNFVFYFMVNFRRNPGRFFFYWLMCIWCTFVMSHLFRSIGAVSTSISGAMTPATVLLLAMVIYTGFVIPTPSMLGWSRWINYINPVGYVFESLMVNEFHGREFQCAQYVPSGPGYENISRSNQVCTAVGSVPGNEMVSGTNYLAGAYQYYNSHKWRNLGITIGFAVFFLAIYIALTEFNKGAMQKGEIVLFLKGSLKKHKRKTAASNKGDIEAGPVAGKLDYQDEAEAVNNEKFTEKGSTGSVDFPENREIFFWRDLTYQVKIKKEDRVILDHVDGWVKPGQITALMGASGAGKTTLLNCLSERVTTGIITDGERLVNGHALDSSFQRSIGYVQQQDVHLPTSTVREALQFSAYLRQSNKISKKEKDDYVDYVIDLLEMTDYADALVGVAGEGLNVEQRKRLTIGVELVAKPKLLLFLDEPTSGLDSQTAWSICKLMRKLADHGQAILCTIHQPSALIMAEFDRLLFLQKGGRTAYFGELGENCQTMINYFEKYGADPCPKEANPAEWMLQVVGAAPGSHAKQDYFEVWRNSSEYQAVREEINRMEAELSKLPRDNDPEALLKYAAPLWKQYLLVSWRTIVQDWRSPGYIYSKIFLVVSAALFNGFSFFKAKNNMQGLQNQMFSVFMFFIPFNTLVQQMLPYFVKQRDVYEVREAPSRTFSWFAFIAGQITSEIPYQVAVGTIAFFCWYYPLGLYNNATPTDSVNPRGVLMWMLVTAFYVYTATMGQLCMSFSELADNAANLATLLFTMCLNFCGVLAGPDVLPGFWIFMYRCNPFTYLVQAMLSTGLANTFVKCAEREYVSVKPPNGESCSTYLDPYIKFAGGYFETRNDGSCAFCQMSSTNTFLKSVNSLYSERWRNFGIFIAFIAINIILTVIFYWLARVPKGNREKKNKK
Sequence of G protein-coupled receptor kinase 5 (P34947 whole entry): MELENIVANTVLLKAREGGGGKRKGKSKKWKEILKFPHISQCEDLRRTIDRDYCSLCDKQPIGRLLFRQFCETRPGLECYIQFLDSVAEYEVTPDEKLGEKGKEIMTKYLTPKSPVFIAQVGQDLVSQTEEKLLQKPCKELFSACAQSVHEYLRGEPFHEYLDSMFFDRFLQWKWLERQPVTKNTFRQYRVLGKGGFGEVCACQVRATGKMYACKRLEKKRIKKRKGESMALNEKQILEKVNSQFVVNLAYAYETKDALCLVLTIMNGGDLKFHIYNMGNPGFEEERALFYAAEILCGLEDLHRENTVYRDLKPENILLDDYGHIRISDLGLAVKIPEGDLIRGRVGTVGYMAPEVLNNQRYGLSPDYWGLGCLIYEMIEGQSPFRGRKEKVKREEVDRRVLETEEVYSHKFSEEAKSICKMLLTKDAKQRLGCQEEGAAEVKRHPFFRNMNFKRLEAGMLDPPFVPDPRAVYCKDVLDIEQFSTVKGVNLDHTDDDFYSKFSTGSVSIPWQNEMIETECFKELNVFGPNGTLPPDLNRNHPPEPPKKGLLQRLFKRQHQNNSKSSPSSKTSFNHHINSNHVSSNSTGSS
Sequence of Dual specificity mitogen-activated protein kinase kinase 2 (P36507 whole entry): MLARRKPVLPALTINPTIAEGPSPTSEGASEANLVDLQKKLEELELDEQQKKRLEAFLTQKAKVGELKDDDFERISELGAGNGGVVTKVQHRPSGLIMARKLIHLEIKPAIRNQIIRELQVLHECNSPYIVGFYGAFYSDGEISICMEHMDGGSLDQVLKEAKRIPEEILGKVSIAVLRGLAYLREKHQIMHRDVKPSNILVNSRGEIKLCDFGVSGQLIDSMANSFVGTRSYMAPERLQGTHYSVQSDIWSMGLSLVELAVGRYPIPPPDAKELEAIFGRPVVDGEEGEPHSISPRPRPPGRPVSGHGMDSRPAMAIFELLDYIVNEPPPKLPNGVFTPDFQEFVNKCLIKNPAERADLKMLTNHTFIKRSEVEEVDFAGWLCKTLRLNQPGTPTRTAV

Oc1nc(SCc2ccccc2Cl)nc2c1CCCC2
CC50 [1]: > 100000 nM (active) | CC50 [2]: > 100000 nM (active) | CC50 [3]: > 100000 nM (active)

Cc1noc(C)c1C(=O)N1CCC2(CC1)Oc1ccc(F)cc1C(=O)C21CC(c2ccc(Cl)cc2)=NO1 (stereo unspecified)
EC50 [4]: 15600 nM (active) | EC50 [5]: 11500 nM (active) | EC50 [6]: 26800 nM (active) | EC50 [7]: 16900 nM (active)

CCc1nc2sc3c(c2c2nnc(SC)n12)CCCC3
IC50 [8]: > 99000 nM (inactive) | IC50 [9]: > 99000 nM (inactive)

COc1cccc(/C=C2/Sc3ccc(C(=O)NCCCN4CCCC4)cc3NC2=O)c1
AC50 [10]: 4460 nM (active) | AC50 [11]: 38900 nM (active) | AC50 [12]: 7910 nM (active) | AC50 [13]: 4470 nM (active)

O=c1c(-c2ccc(F)cc2)c(Br)cnn1Cc1cccc2ccccc12
IC50 [14]: 2240 nM (active) | IC50 [15]: 2240 nM (active)

NC(=O)c1ccc2nc(-c3ccc([N+](=O)[O-])o3)cn2c1
Ki [16]: 251 nM (active) | Ki [17]: 631 nM (active) | Ki [18]: 1580 nM (active) | Ki [19]: 1260 nM (active) | Ki [20]: 158 nM (active) | Ki [21]: 631 nM (active) | Ki [22]: 316 nM (active) | Ki [23]: 100 nM (active) | Ki [24]: > 6310 nM (inactive) | Ki [25]: 251 nM (active) | Ki (Activin receptor type-1): 200 nM (active) | Ki [26]: 1580 nM (active) | Ki [27]: 631 nM (active) | Ki (Aurora kinase A): 126 nM (active) | Ki [28]: 794 nM (active) | Ki [29]: 126 nM (active) | Ki [30]: 794 nM (active) | Ki (LIM domain kinase 1): 158 nM (active) | Ki [31]: 1260 nM (active) | Ki [32]: 1000 nM (active) | Ki [33]: 251 nM (active) | Ki [34]: 50.1 nM (active) | Ki (Activated CDC42 kinase 1): 251 nM (active) | Ki [35]: 1000 nM (active) | Ki [36]: 2510 nM (active) | Ki [37]: 50.1 nM (active) | Ki [38]: > 2510 nM (inactive) | Ki [39]: 158 nM (active) | Ki [40]: 126 nM (active) | Ki [41]: > 2510 nM (inactive) | Ki [42]: 79.4 nM (active) | Ki [43]: 631 nM (active) | Ki (Focal adhesion kinase 1): 316 nM (active) | Ki [44]: 126 nM (active) | Ki (Aurora kinase B): 251 nM (active) | Ki [45]: 1000 nM (active) | Ki [46]: 2000 nM (active) | Ki [47]: 63.1 nM (active) | Ki [48]: 126 nM (active) | Ki [49]: 631 nM (active) | Ki [50]: 39.8 nM (active) | Ki [51]: > 3980 nM (inactive) | Ki [52]: 20 nM (active) | Ki [53]: 1260 nM (active) | Ki [54]: 1000 nM (active) | Ki [55]: 31.6 nM (active) | Ki [56]: 126 nM (active) | Ki [57]: 79.4 nM (active)

NC1=NC[C@@H](Cc2ccc(O)cc2)N1CCCCC1CCCCC1
IC50 [58]: > 20000 nM (inactive) | EC50 [59]: 27300 nM (active) | EC50 [60]: 16300 nM (active)
